# Experiment: Human HepG2 cell viability assay in 384 well format
# Format: toxicity, cell-based
# Parameters: dose 125 nL, time 70.5 hour; cytotoxicity at 70.5 h: concentration not given beside the values
# Settings: HepG2 cells, read-out: Inhibition
row,Compound,cytotoxicity at 70.5 h [%]
1,CCC(C)N(Cc1cccnc1)C(=O)c1ccc(NS(=O)(=O)CC)cc1 (configuration not stated),-1.92
2,CCc1nc(C2CCCN2CC(=O)NCCOc2ccccc2)no1 (configuration not stated),11.4
3,CCN1CCCC1CNC(=O)Cc1c(C)n[nH]c1-c1ccc(OC)cc1 (configuration not stated),24.8
4,COCCn1cnc(-c2cc(C(=O)NC(C)C)c3ccccn23)c1,-6.05
5,COc1cc(CNc2cnn(C)c2)cc2c1OCCO2,-4.12
6,CCn1nc(C)c2nc(C)nc(NCCc3ccccc3)c21,2.39
7,CCCN1CCC(CNC(=O)C2(c3ccccc3)CCC2)C1 (configuration not stated),18.5
8,CCc1cc(N2CC(N3CCCCC3C)C2)n2nccc2n1 (configuration not stated),6.74
9,O=C(c1ncccn1)N1CCC[C@]2(C[C@H](OCC3CC3)CO2)C1,-16.3
10,Cc1nc(C)n(CC2CCCN(CCOc3ccc(F)cc3)C2)n1 (configuration not stated),-3.5
11,CNc1nc(CNC(=O)Nc2cc(Cl)ccc2F)cs1,-2.3
12,CN(Cc1ccc(F)cc1)CC1(O)CCCN(CC(C)(C)C)C1=O (configuration not stated),-6.42
13,CN1CCCCC1c1ccc(-n2ccnc2)nc1 (configuration not stated),-2.08
14,OCCN1CCCC(c2cccc(-c3ccccc3F)n2)C1 (configuration not stated),-5.22
15,Cn1c(NCC(=O)N2CCCC2)c(C#N)c(=O)n(C)c1=O,12.4
16,Cc1cc(C(=O)N2CCCCC2C)ccc1NCC(=O)N1CCOCC1 (configuration not stated),26.9
17,CC(NCc1ccc(OCc2nccn2C)cc1)c1cccnc1 (configuration not stated),-9.04
18,CN1CCC(N2CC[C@H](c3nc4ccc(C(F)(F)F)cc4[nH]3)C2)CC1,-13.2
19,O=C(CCN1CCOC(C(F)(F)F)C1)NCc1ccccc1Cl (configuration not stated),15.4
20,CC(=O)c1ccc(OCC(=O)NS(=O)(=O)c2ccc(C)s2)cc1,-14
21,CC(=O)N(C)c1nc(CN2CCCC2Cn2cncn2)cs1 (configuration not stated),-2.86

row,Compound,cytotoxicity at 70.5 h [%]
1,Cc1cc(NC(=O)N(Cc2ccc(C#N)cc2)C(C)C)no1,-13.2
2,Cc1nc(N2CCN(C)CC2)ncc1C(=O)N1C[C@@H](C)[C@@](C)(O)C1,4.1
3,COCCC1(CNC(=O)NCC2CCC2)CCC1,-0.0221
4,CC(C)OCCC(=O)NCC(O)c1c(Cl)cccc1Cl (configuration not stated),-3.94
5,CN(CC1CCCCO1)C(=O)c1ccnc(OC2CCC2)c1 (configuration not stated),-5.26
6,O=C(CCCc1ccccn1)NCC(O)c1c(F)cccc1F (configuration not stated),-1.43
7,COCC(Nc1ncnc2sc(C(=O)O)c(C)c12)c1ccnn1C (configuration not stated),0.588
8,CN(C)c1ccc(NC(=O)CN2CCS(=O)(=O)CC2)cn1,-0.4
9,CCNC(=O)N1CCC(OC)c2ccccc2N(CC(=O)NC)C(=O)C1 (configuration not stated),-2.79
10,COCc1cc(NCCc2ccc(OC)cc2)n2nccc2n1,-24.5
11,COc1cccc(N2CCN(Cc3ccc4[nH]ccc4c3)CC2=O)c1,-12.1
12,O=C(NCCCO)NCCc1cc(F)ccc1F,-0.605
13,Cc1nc(CNC(=O)N2CCN(c3ccc(Cl)cn3)CC2)no1,3.34
14,COc1ncccc1C(=O)N1CC[C@H]2C[C@@H](C)O[C@@H]2C1,-21.5
15,CCOCc1cncc2c1CCN(S(=O)(=O)c1ccc(C)cc1)C2,-2.29
16,O=C(c1c[nH]cn1)N1CCOCC2(C1)CN(c1ccccc1)C(=O)CO2 (configuration not stated),-13.7
17,O=C1N(c2ccc(Cl)cc2)Cc2nc(=O)[nH]n21,-11.3
18,CCOCC1CN(S(=O)(=O)c2ccccc2)Cc2nccn2C1 (configuration not stated),13.5
19,CC(C)NC(=O)[C@@H]1C[C@@H](N)CN1C(=O)CCSCc1ccccc1,1.3
20,CCc1nc(C)c(C(=O)N(C)Cc2cnn(-c3cccc(OC)c3)c2)s1,-3.66
21,Cc1cc(CN2CCC3(CC2)CC(C(=O)O)N(C(=O)C2CC2)C3)oc1C (configuration not stated),-13.7

row,Compound,cytotoxicity at 70.5 h [%]
1,CN(Cc1cnn(C)c1)C(=O)C1COCC(=O)N1Cc1ccccc1 (configuration not stated),-4.96
2,Cc1ccc(CN2CCCC(c3cnccn3)C2)s1 (configuration not stated),-1.38
3,Cc1nc(C2CCCN(C(=O)c3ccc(Cn4cccn4)o3)C2)no1 (configuration not stated),-12.8
4,Cc1ccccc1S(=O)(=O)N1CCC(c2[nH]ncc2C)C1 (configuration not stated),-8.88
5,CCN1CC(Oc2ccc(Cl)cc2)=NC(SCC(=O)c2ccccc2)=N1,12.1
6,NC(=O)NCC(=O)N1CCCC(c2nccn2CC2CCC2)C1 (configuration not stated),-1.33
7,CC(C)NC(=O)N1CCOC2(CCCN(c3ncccc3F)C2)C1 (configuration not stated),-13.6
8,Cc1nn(C)c(C)c1C1COCCN1C(=O)c1cc(F)ccc1F (configuration not stated),-16.4
9,CS(=O)(=O)N1CCCc2sc(C(=O)NC3CC3)nc21,-3.24
10,O=C(c1ccc2c(c1)OCO2)N1CCN(c2cnccn2)CC1,-3.98
11,COc1ccc(-c2cc3nn(CC(N)=O)c(=O)n3c(C)n2)cc1,-7.26
12,CC(=O)N(C)c1nc(CN2CCN(Cc3nccn3C)CC2)cs1,10.2
13,Cc1nn(C(C)C)c(C)c1NC(=O)c1cccnc1,1.88
14,COCC1CN(C(=O)c2ccco2)Cc2cn(C)nc21 (configuration not stated),3.61
15,O=C(Cn1cccn1)Nc1ccc(N2CCOCC2)cc1,0.51
16,O=C(CCc1ccsc1)N(Cc1ccccn1)C1CC1,-2.46
17,CCCN1CC[C@@H]2[C@@H](CO[C@H]2CNC(=O)c2nccn2C)C1,-5.44
18,Cc1nc(C)n(CC2CCCN2CCOc2cccc(F)c2)n1 (configuration not stated),-9.85
19,Cc1cc(=O)n2nc(Oc3cccc(C(N)=O)c3)sc2n1,-25
20,CCc1nc(CCNc2ncccc2S(N)(=O)=O)sc1C,1.18
21,O=C(COCCOc1ccccc1)N1CCCC(n2ccnc2)C1 (configuration not stated),-4.49

row,Compound,cytotoxicity at 70.5 h [%]
1,CC(C)CC(=O)Nc1ccc2c(c1)ncn2CC(=O)NCCN(C)C,-6.17
2,Cc1ccc(CN(C)C(=O)c2n[nH]c(N)c2-c2ccccc2)o1,28.7
3,CCn1ncc(CN2CCC(c3ncc(Cl)cc3S(C)(=O)=O)CC2)c1C,-8.43
4,COCC(=O)NCc1cc(=O)n2c(n1)CN(CC1CC1)CCC2,0.0162
5,CCc1nc(N2CCC3(CCC(=O)N(CCCO)C3)CC2)no1,9.45
6,CN(C)C(=O)N[C@@H]1CN(C2CCOCC2)[C@@H]2CCCO[C@@H]21,-2.52
7,CN(C)C(=O)c1cc2c(s1)CCN(C(=O)CCCN1CCCCC1)C2,-6.61
8,O=C(Nc1ccc(CCN2CCOCC2)cc1)C1CCCC1,-3.35
9,CC(CCN1CCn2nc(CNC(=O)N(C)C)cc2C1)c1ccccc1 (configuration not stated),-6.81
10,CN(Cc1cc(Br)cs1)Cc1nnsc1Cl,-8.26
11,Cc1nnc(N2CC[C@H]3C[C@H](C(=O)N(C)C)O[C@@H]3C2)s1,-7.89
12,CCC(=O)N1CCC2(COCc3cnc(N4CCOCC4)nc32)C1 (configuration not stated),1.55
13,Cc1noc(C)c1CN1CCO[C@H]2CN(Cc3cncn3C)C[C@H]21,19
14,Cc1ccc(C(CNCc2cnn(C(C)C)c2)N2CCOCC2)s1 (configuration not stated),-0.62
15,Cn1cc(CN2CCC3(CC2)CN(c2cccnc2)C(=O)CO3)cn1,-5.12
16,O=C1CC2(CCN(c3nncs3)C2)CN1c1ccc2c(c1)OCCO2 (configuration not stated),-1.06
17,O=c1cccnn1CC1CN(Cc2ccsc2)Cc2nccn2C1 (configuration not stated),0.993
18,CN1CCN(C(=O)Cc2ccc(F)cc2)Cc2cccnc21,5.52
19,CNC(=O)c1cc2c(nc1NCC(C)C)CCN(c1ccncn1)CC2,-0.746
